From patent US20240217946A1, “ANTIDEPRESSANT AND ANXIOLYTIC SUBSTITUTED CINNAMAMIDE COMPOUND” (TASLY PHARMACEUTICAL GROUP CO., LTD., priority 2021, published 2024)
“Also recorded” adds a separate entry of the source.

Key:
C57 BL/6 mice = experiment: Mice tail suspension test after single oral administration; assay type: in vivo; details: 30 min after single administration; for Immobility time within 6 min: n = 10, mean ± SD
Source text: “Behavioral despair” models were developed by Porsolt et al. in 1977, including rats and mice forced swimming models and mice tail suspension models, which were acute stress models. Mice tail suspension experiment was a simple and easy-to-implement experimental method for evaluating antidepressant drugs introduced by Stern et al. in 1985, and its principle was the same as that of forced swimming “immobility” experiment.
40 mice were divided into 4 groups according to the Excel complete random grouping method, with 10 animals in each group. […] Therefore, in this experimental study, with 30 mg/kg as the low dosage of compound M2, 60 mg/kg was set as the high dosage of compound M2 to conduct research in comparison with 60 mg/kg compound I-5.
Each test group was administered intragastrically (i.g.) at 0.2 ml/10 g body weight.
Mice tail suspension test was carried out 30 min after a single oral administration, and the tail suspension lasted for 6 min. The immobility time of mice within 6 min was recorded.
Data was expressed as mean±standard (mean±SD) difference, and statistics of data differences were made by one-way analysis of variance (ANOVA) or nonparametric test, and differences between groups were determined by P<0.05.

mice [1] = details: 10 mg/kg for 7 days; cited from earlier work
mice [2] = details: 10 mg/kg continuously for 7 days; cited from earlier work
mice [3] = details: mouse, in vivo; cited from earlier work
mice [4] = details: Patent C; cited from earlier work
C57 BL/6J male mice = experiment: Forced swimming experiment in mice; assay type: in vivo
Source text: 1) Forced Swimming Experiment: Also Known as Despair Experiment, an Experiment Usually Used to Test Depression-Like Behavior of Mice
• Animal: C57 BL/6J male mice (18-20 g)
Intraperitoneal injection (i.p)

[5] = tested on: pyramidal neurons in prefrontal PrL brain area; experiment: Brain slice electrophysiology, sEPSC of mPFC pyramidal neurons; assay type: cell-based, mice; details: 10 nM, 10 μM, 150 μM; for sEPSC distribution frequency: concentration-dependent, significant at 150 μM
Source text: 2) Brain Slice Electrophysiological Experiment: For Detecting Effect of Compound M2 on mPFC Excitatory Synaptic Transmission • Animal: neonatal mice C57 BL/6J (20-30 days). • Instrument: vibratome (Leica), brain slice electrophysiological system (Axon). • Brain slice electrophysiological experiment method • SEPSC experiment method: Neonatal C57 mice were anesthetized and then perfused with artificial cerebrospinal fluid (ACSF). After decapitation, brain tissue was taken quickly and sliced by vibratome, with a thickness of a brain slice being 300 μm. After the brain slices were incubated at 28 °C for 1 h, whole-cell recordings of mPFC pyramidal neurons were made using a voltage clamp (−70 mV) through a brain slice electrophysiological system. The baseline recording time was 6 min, and then a drug to be tested was added through a perfusion system (the drug was dissolved using ACSF), and the recording time after adding the drug was 6-10 min. Recorded data was analyzed using Minianalysis software, and effects of the drug to be tested on sEPSC frequency and amplitude of medial prefrontal pyramidal neurons in C57 mice were compared.
All data analysis was done using spss data processing software, and data was expressed by Mean±s.e.m. One-way ANOVA was used to analyze the effect of compound M2 and the effect of compound M2 under the action of dopamine receptor antagonists on sEPSC current: and paired t test was used to analyze sEPSC experimental results. * was marked when p<0.05.
During the experiment, 10 μM Bicuculine was added to the solution to block GABA receptor, so as to record sEPSC of pyramidal neurons. The experiment investigated effects of different concentrations of compound M2 on spontaneous excitatory postsynaptic […] (sEPSC) of pyramidal neurons in prefrontal PrL brain area, as shown in FIG. 2.

mTOR signaling pathway = experiment: Western blot of prefrontal proteins after single administration; assay type: in vivo, mice; details: 30 mg/kg
Experimental: 3) Western Blot: For Detecting Effect of Compound M2 on a Change in mPFC Protein Content • Animals: C57 BL/6J male mice (18-20 g), divided into four groups, i.e. the control group, fluoxetine group, compound M2 (30 mg/kg) group, and esketamine group. • Primary antibodies for experimental use
0.5 h/24 h after administration of C57 mice, brain tissue was sampled from the prefrontal brain area. After tissue samples were lysed and homogenized, quantification of proteins was performed using the BCA method, and changes in protein content in the prefrontal brain area 0.5 h/24 h after intraperitoneal administration of compound M2 were detected by steps of SDS-PAGE gel preparation, sample loading and electrophoresis, membrane transfer, sealing, primary antibody incubation, secondary antibody incubation, protein detection (development and fixation), etc.

Structure (SMILES) | Immobility time within 6 min (C57 BL/6 mice; 60 mg/kg i.g.) [s] | effect on immobility time of mice in tail suspension vs blank group (C57 BL/6 mice; 60 mg/kg) | immobility time of tail suspension in mice (mice [1]) | reserpine-induced body temperature decrease and akinesia in mice, degree of eye closure (mice [2]) | immobility time of forced swimming in mice (mice [3]) | effective anxiolytic dosage in mice elevated plus maze experiment (mice [4]) [mg/kg] | antidepressant-like effect (C57 BL/6J male mice; 24 h after a single i.p. administration, fluoxetine 10 mg/kg, esketamine 10 mg/kg, M2 3-30 mg/kg) | immobility time of mice in forced swimming (C57 BL/6J male mice; 24 h after single i.p. administration, dosage effect, significant at 30 mg/kg, 30 mg/kg) | sEPSC distribution amplitude [5] | sEPSC distribution frequency [5] | sEPSC distribution frequency ([5]; listed as compound M2) | sEPSC distribution amplitude ([5]; listed as compound M2) | medial prefrontal p-TrkB content (mTOR signaling pathway; 0.5 h after administration) | medial prefrontal p-mTOR content (mTOR signaling pathway; 0.5 h after administration) | total content (mTOR, TrkB) (mTOR signaling pathway; 0.5 h after administration) | content of medial prefrontal synaptogenesis-related protein PSD95 (mTOR signaling pathway; 24 h after single administration) | Immobility time within 6 min (C57 BL/6 mice; 30 mg/kg i.g.) [s] | effect on immobility time of mice in tail suspension vs blank group (C57 BL/6 mice; 30 mg/kg)
CC(C)CNC(=O)/C=C/c1cc2c(c(C(F)(F)F)c1)OCO2 [Compound I-5] | 218.0 ± 35.3 | not significantly affected | significantly shorten the immobility time | significantly antagonizing | significantly shorten the immobility time | 10 | – | – | – | – | – | – | – | – | – | – | – | –
NC(=O)/C=C/c1cc2c(c(C(F)(F)F)c1)OCO2 [Compound M2] | 171.8 ± 21.7 | significantly shortened | – | – | – | – | had antidepressant-like effect | reduce the immobility time; also recorded: significantly reduced | did not have significant effect | increased | significantly enhance | does not have a significant effect | increased | increased | remaining unchanged | significantly increased | 183.9 ± 43.5 | no statistically significant difference
